Results from paper PMC5974090, “A fluorescence anisotropy assay to discover and characterize ligands targeting the maytansine site of tubulin” (Nature Communications, 2018).
Where two headings read alike, the source gives them in different places.

Columns and labels:
[1] = molecular target: maytansine site of tubulin (Bos taurus, UniProt Q6B856); type: binding; settings: for Kd: 25 °C, mean ± SEM, n = 3, read-out: Kd from FcMaytansine displacement
Description: Vinblastine and colchicine were used as negative controls. […] The mixture was then incubated with an unlabeled competitor at increasing concentrations prior to anisotropy measurements.
Fluorescence anisotropy competition experiments and analyses were performed as previously described[34] with minor modifications. Samples containing 10 nM FcMaytansine and 4 nM tubulin in assay buffer were titrated with increasing amounts of a competitor at 25 °C in black Greiner 384-well, flat-bottom microplates and in a final volume of 50 µL. Fluorescence anisotropy measurements were carried out as described above.
The system was solved using EQUIGRA5[34] using the binding constant of FcMaytansine and a stoichiometry of 1:1 for the tubulin–FcMaytansine complex (EQUIGRA5 can be obtained upon request from Fernando Díaz, fer@cib.csic.es).

cells = tested on: cells; parameters: method as in PMID 25826705; settings: in vitro cytotoxicity, compound added exogenously; cited from earlier work
tubulin [2] = molecular target: T1, tubulin (Bos taurus, UniProt Q6B856); parameters: method as in PMID 20937594; settings: reported previously; buffer with 100 mM PIPES; read-out: Kd for the tubulin-maytansine interaction; cited from earlier work
tubulin [3] = molecular target: T1, tubulin; assay: Fluorescence anisotropy titration of FcMaytansine with tubulin (direct binding); settings: 25 °C
Description: The binding constant of the fluorescent FcMaytansine probe to tubulin was determined by fluorescence anisotropy titration at 25 °C in black Greiner 384-well, flat-bottom microplates and in a final volume of 50 µL. 10 nM FcMaytansine in assay buffer (15 mM PIPES-KOH, pH 6.8, supplemented with 0.3 mM MgCl2 and 0.2 mM EDTA) was titrated with increasing amounts of tubulin up to 400 nM. The anisotropy and fluorescence values of the free (r = 0.016 ± 0.001, fluorescence = 1 (arbitrary units)) and bound (r = 0.245 ± 0.005, fluorescence = 3.10 ± 0.05 (arbitrary units)) states were determined in the absence and presence of 400 nM tubulin, respectively. The anisotropy was measured using a PHERAstar microplate reader (BMG Labtech) with the fluorescence polarization module. […] The read height and the gain were adjusted automatically. […]
In order to calculate the binding constant of FcMaytansine and one of a non-fluorescent ligand from a competition experiment, the fractional saturation, νb, of FcMaytansine has to be determined. Binding of FcMaytansine to tubulin was measured through changes in its anisotropy. […]
In the simplest case of a fluorescent probe with no quantum yield difference between the bound and the free state, the fraction of bound (νb) and free (νf) fluorophore coincides with the fluorescence fractions for the bound and free fluorophore (Fb and Ff, respectively). […]

mouse xenograft models = tested on: mouse xenograft models; parameters: method as in Xu et al. 2011; Rothmeier et al. 2010; Paterson et al. 2003; settings: ref Xu et al. 2011, Rothmeier et al. 2010, Paterson et al. 2003; cited from earlier work
human cancer cell lines = tested on: human cancer cell lines; parameters: method as in Xu et al. 2011; Rothmeier et al. 2010; Paterson et al. 2003; settings: large panel of human cancer cell lines; ref Xu et al. 2011; Rothmeier et al. 2010; Paterson et al. 2003; cited from earlier work
[4] = parameters: method as in Panda et al., Proc Natl Acad Sci USA 95, 9313 (1998); settings: ref Panda et al., Proc Natl Acad Sci USA 95, 9313 (1998); cited from earlier work
tubulin [5] = molecular target: T1, tubulin; parameters: method as in Panda et al., Proc Natl Acad Sci USA 95, 9313 (1998); settings: exact binding site on tubulin unknown; ref Panda et al., Proc Natl Acad Sci USA 95, 9313 (1998); cited from earlier work
[6] = 10 nM FcMaytansine, 4 nM tubulin, increasing competitor concentrations
[7] = 10 nM FcMaytansine, 4 nM tubulin

T1 sequence (Q6B856 whole entry): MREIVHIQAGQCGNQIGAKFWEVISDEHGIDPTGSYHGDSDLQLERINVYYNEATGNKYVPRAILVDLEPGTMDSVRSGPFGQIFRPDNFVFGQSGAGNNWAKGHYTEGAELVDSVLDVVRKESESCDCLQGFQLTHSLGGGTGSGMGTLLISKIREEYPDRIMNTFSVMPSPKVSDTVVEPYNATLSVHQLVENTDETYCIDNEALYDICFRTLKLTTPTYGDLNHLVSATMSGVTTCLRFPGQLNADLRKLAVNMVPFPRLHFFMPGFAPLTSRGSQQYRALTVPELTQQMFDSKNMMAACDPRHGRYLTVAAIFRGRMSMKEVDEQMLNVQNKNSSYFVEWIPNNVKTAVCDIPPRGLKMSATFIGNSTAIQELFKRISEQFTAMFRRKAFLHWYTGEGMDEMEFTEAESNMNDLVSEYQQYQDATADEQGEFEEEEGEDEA
T1 sequence (P81947 whole entry partner): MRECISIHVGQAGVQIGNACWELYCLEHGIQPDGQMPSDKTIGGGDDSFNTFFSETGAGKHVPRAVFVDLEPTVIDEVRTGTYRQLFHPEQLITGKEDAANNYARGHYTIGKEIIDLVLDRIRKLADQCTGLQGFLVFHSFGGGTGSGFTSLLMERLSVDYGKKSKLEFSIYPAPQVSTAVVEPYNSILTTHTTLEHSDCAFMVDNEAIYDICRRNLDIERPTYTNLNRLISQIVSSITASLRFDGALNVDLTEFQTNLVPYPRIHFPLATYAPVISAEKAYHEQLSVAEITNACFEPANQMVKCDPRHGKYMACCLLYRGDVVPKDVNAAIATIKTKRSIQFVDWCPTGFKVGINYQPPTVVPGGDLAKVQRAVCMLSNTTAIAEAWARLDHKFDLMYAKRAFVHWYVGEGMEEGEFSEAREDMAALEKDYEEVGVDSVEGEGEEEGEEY
maytansine site of tubulin, sequence (P81947 whole entry): as the sequence (P81947 whole entry partner) above
maytansine site of tubulin, sequence (Q6B856 whole entry): as the sequence (Q6B856 whole entry) above

Compound: ansamitocin P3
- displacement of FcMaytansine from tubulin [1, 6]: fully displaced

Compound: CC[C@]1(O)C[C@@H]2CN(CCc3c([nH]c4ccccc34)[C@@](C(=O)OC)(c3cc4c(cc3OC)N(C)[C@H]3[C@@](O)(C(=O)OC)[C@H](OC(C)=O)[C@]5(CC)C=CCN6CC[C@]43[C@@H]65)C2)C1 [vinblastine]
- displacement of FcMaytansine from tubulin [1]: not

Compound: COc1cc2cc(c1Cl)N(C)C(=O)CC(OC(=O)C(C)N(C)C(=O)CCSC1CC(=O)N(CC3CCC(C(=O)NCCCCC(N)C(=O)O)CC3)C1=O)C1(C)OC1C(C)C1CC(O)(NC(=O)O1)C(OC)C=CC=C(C)C2 (centres unmarked) [M9]
- fold less potent in cellular assays than S-Me DM1 (cells): ~ 450 fold

Compound: C/C=C\C[C@@H](C/C=C\NC(=O)[C@@H](NC(=O)\C=C/C=C\C(C)=C\[C@H](C)[C@@H]1CC=C(OC)C(=O)O1)C(C)(C)C)OC(N)=O [PM060184]
- Kd [1, 7]: 111 ± 30 nM
- displacement of FcMaytansine from tubulin [1, 6]: fully displaced

Compound: COc1cc2cc(c1Cl)N(C)C(=O)C[C@H](OC(=O)[C@H](C)N(C)C(C)=O)[C@]1(C)O[C@H]1[C@H](C)[C@@H]1C[C@@](O)(NC(=O)O1)[C@H](OC)/C=C/C=C(\C)C2 [maytansine]
- Kd (tubulin [2]): ~900 nM

Compound: COc1cc2cc(c1Cl)N(C)C(=O)CC(OC(=O)CCCCc1cn(CCCNC(=O)c3ccc(C(=O)O)c(-c4c5ccc(=O)cc-5oc5cc(O)ccc45)c3)nn1)C1(C)OC1C(C)C1CC(O)(NC(=O)O1)C(OC)C=CC=C(C)C2 (centres unmarked) [FcMaytansine]
- Kd (tubulin [3]; 10 nM FcMaytansine, tubulin 0 to 400 nM, single binding site model, mean ± SEM, n = 5, read-out: dissociation constant, Kd, for the tubulin-FcMaytansine interaction): 6.8 ± 0.8 nM
- binding constant of FcMaytansine to tubulin (tubulin [3]; stoichiometry 1:1, association constant): 1.6 ± 0.3 × 10^8 M^−1

Compound: spongistatin-1
- in vivo antitumour activity (mouse xenograft models): antitumour activity
- Kd [1, 7]: 9.5 ± 1.9 nM
- antiproliferative activity (human cancer cell lines): single digit picomolar

Compound: C/C=C/[C@H](O)C(C)(C(=O)OC)[C@@H]1C\C=C/C=C/C=C/c2nc(co2)C(=O)O[C@H](C(C)(C(=O)OC)[C@@H](O)/C=C/C)C\C=C/C=C/C=C/c2nc(co2)C(=O)O1 (some centres unmarked) [disorazole Z]
- binding affinity value relative to maytansine and spongistatin ([1]; times higher Kd than maytansine and spongistatin, rebuttal letter): ~ 100 times

Compound: COc1ccc(C[C@H]2NC(=O)/C=C/C[C@@H]([C@H](C)[C@H]3O[C@@H]3c3ccccc3)OC(=O)[C@H](CC(C)C)OC(=O)C(C)(C)CNC2=O)cc1Cl [Cryptophycin 52]
- IC50 [4]: 0.02 nM
- Kd (tubulin [5]): 47 nM
